For data set [1] the following is noted: human, 24 h, 2 % w/v, pH 7.4.
Method: Flux through stripped human skin was compared with flux of the same drugs through distilled water. […] All drug concentrations were analyzed by HPLC.
A short description of data set [2]: IPM/NMP binary vehicle transport, 2% w/v lidocaine free base. The class given is in vitro ADME, human. An excerpt:
(iii) Preparation of Skin Samples. […] (iv) Lidocaine Transport Experiments. […] J. […] (v) IPM/NMP Binary Vehicle Transport. […] (vi) Quantification of Lidocaine. […] (vii) Calculations.

Data set [3] in a line: LDA chaperoning: lidocaine and NMP flux with 1% LDA in IPM or NMP solvent. In kind it is in vitro ADME, human. As to conditions: for NMP Fluxss: NMP solvent. An excerpt:
(ii) Preparation of Skin Samples. […] (iii) Transport Experiments. […] J. […] (iv) LDA Chaperoning. […] The LDA's included octadecene, oleyl alcohol, and oleic acid. Similar solutions with NMP as the solvent were also obtained. […] (viii) Quantification of Transport. […] (ix) Calculations. […] D. Results

The nature of data set [4]: NMP partitioning between IPM and H2O. The class given is physicochemical. To be noted: equilibrium mixture of H2O and IPM. The procedure:
(vii) NMP Patitioning. Distilled water (2 ml), IPM (2 ml), and NMP (40 μl) were thoroughly vortexed in a glass tube. After equilibrating for 1 hour, the sample was centrifuged at 14,000 rpm for 6 minutes and separated into 2 phases. Samples of each phase were taken to determine NMP concentration by HPLC.
(viii) Quantification of Transport.

A further data set is described as follows: in vitro. As to conditions: human, pH 7.4.
The nature of data set [5]: H2O/NMP binary vehicle transport.
For data set [6] the following is noted: human, pH 7.4.
The nature of data set [7]: Microemulsion phase diagrams, drug load and stability. In kind it is physicochemical. As to conditions: O/W ME. Here is the method:
(i) Microemulsion Phase Diagrams. Four microemulsion (ME) systems were investigated to determine their ternary phase diagrams. All percentages are given as mass ratios.
Each of the three components for a system was titrated until a phase change between microemulsion and two phase mixture was observed. The boundary of this transition was recorded over the entire concentration range. A microemulsion was determined as a miscible, optically clear, stable solution. At the transition to a two phase regime, there is a clear clouding of the mixture as well as an eventual separation of the phases.
(ii) Preparation of Formulations. […] Drug flux was tested through ME system 1 at two selected concentrations, one in the W/O region, and the other in the O/W. The W/O system consisted of H2O:IPM:Tween 80 (10:52:38 w/w) while the O/W system contained H2O:Ethanol:IPM:Tween 80 (27:18:16:39 w/w). Both systems stably incorporated 10% w/w NMP and 10% w/w oleyl alcohol. […] The “water phase” sample consisted of the aqueous elements H2O:Ethanol:NMP (51:31:18) in the same relative proportions as if the organic components were removed.

A word on the Papp: it is a coefficient for how fast a substance crosses the barrier. Higher therefore signals ready permeation.

Each structure is given as a SMILES string. Where “and” joins values, the source holds several entries; their conditions need not be identical. Equal values may be shown once. Where a name gives a salt, the structure may show the parent alone.

`CCCNC(C)C(=O)Nc1ccccc1C` (centres unmarked) [Prilocaine HCl]: in data set [1], the “Fluxss from H2O” value worked out at 2.44 ± 0.98 μg/cm^2/hr and the “Fluxss from H2O/NMP” value worked out at 6.31 ± 0.14 μg/cm^2/hr.

On to `CN1CCCC1=O` [NMP, n-methyl pyrrolidone], for which the “NMP 24 Hour Transport” value in data set [2] (10% NMP (v/v)) was 22.8 ± 3.7 µg; in data set [2] (25% NMP (v/v)) it was 83.6 ± 5.7 µg; in data set [2] (50% NMP (v/v)), 112 ± 5.3 µg; in data set [2] (60% NMP (v/v)) it was 134 ± 13 µg; in data set [2] (75% NMP (v/v)) it was 161 ± 6 µg; in data set [2] (90% NMP (v/v)), 128 ± 1 µg. In addition, in data set [2] (100% NMP (v/v)), the “NMP 24 Hour Transport” value was found to be 115 ± 0.2 µg. Moreover, the “NMP Fluxss” value in data set [2] (10% NMP (v/v)) came out at 1.46 ± 0.9 μg cm^−2 hr^−1; in data set [2] (25% NMP (v/v)), 5.40 ± 0.49 μg cm^−2 hr^−1; in data set [2] (50% NMP (v/v)), 9.01 ± 0.84 μg cm^−2 hr^−1; in data set [2] (60% NMP (v/v)), 11.2 ± 1.2 μg cm^−2 hr^−1; in data set [2] (75% NMP (v/v)) it was 14.0 ± 0.9 μg cm^−2 hr^−1; in data set [2] (90% NMP (v/v)), 11.7 ± 0.1 μg cm^−2 hr^−1. For the same molecule, the “NMP Fluxss” value in data set [2] (100% NMP (v/v)) is 10.7 ± 0.2 μg cm^−2 hr^−1; in data set [3] (1% w/v isopropyl myristate), 15.8 ± 3.6 mg/cm^2/hr; in data set [3] (1% w/v octadecene), 15.3 ± 1.2 mg/cm^2/hr; in data set [3] (1% w/v oleic acid), 17.6 ± 2.0 mg/cm^2/hr; in data set [3] (1% w/v oleyl alcohol) it was 20.7 ± 1.0 mg/cm^2/hr; in data set [3] (no LDA), 12.6±0.5 mg/cm^2/hr. In addition, the “NMP Fluxss” value turned out to be 0.007 ± 0.007 μg/cm^2/hr in data set [5] (10% NMP); 0.008 ± 0.003 μg/cm^2/hr in data set [5] (20% NMP); 0.026 ± 0.021 μg/cm^2/hr in data set [5] (40% NMP); 0.010 ± 0.002 μg/cm^2/hr in data set [5] (50% NMP); 0.106 ± 0.058 μg/cm^2/hr in data set [5] (60% NMP); 3.26 ± 0.74 μg/cm^2/hr in data set [5] (80% NMP). Further, the “NMP Fluxss” value in data set [5] (90% NMP) is on record as 9.18 ± 0.53 μg/cm^2/hr; in data set [5] (100% NMP), 12.6 ± 0.5 μg/cm^2/hr. For the same molecule, in data set [3] (approximate value), the “flux of NMP through human skin” value is about 10 mg/cm^2/hr. In addition, in data set [4], the “NMP partition in the water phase” value stood at 98%. Moreover, the “[IPM]/[H2O] partition coefficient of NMP” value in data set [4] was 0.02±0.001 and 0.02. The same molecule gave an apparent permeability (Papp) at 24 h, 10 % v/v in “in vitro” of 0.03 ×10⁻⁶ cm/s. In the data set “in vitro”, this molecule showed a Papp at 24 h, 20 % v/v of 0.0178 ×10⁻⁶ cm/s. This molecule also showed a Papp at 24 h, 40 % v/v in “in vitro” of 0.0281 ×10⁻⁶ cm/s. In addition, the Papp at 24 h, 50 % v/v in the data set “in vitro” is 0.00861 ×10⁻⁶ cm/s. Besides, the apparent permeability (Papp) at 24 h, 60 % v/v in “in vitro” was 0.0758 ×10⁻⁶ cm/s. This molecule also had a Papp at 24 h, 80 % v/v in “in vitro” of 1.74 ×10⁻⁶ cm/s. For the same molecule, the Papp at 24 h, 90 % v/v in the data set “in vitro” was 4.36 ×10⁻⁶ cm/s. Further, in “in vitro”, the Papp at 24 h, 100 % v/v is 1.75 ×10⁻⁶ cm/s.

In the case of `C[C@]12CC[C@@H]3c4ccc(O)cc4CC[C@H]3[C@@H]1CC[C@@H]2O` [Estradiol], the “time at which steady state is reached in vitro” value in data set [6] is “about 4 hours”.

Regarding `CCCCCCCCCCCCCC(=O)OC(C)C` [IPM, isopropyl myristate], the “% IPM Uptake (maximum)” value in data set [7] (Tween 80/Ethanol ratio 1:1) is 47 % (w/w); in data set [7] (Tween 80/Ethanol ratio 1:2), 8.3 % (w/w); in data set [7] (Tween 80/Ethanol ratio 2:1), 42 % (w/w); in data set [7] (Tween 80/Ethanol ratio 2:3), 8.1 % (w/w); in data set [7] (Tween 80/Ethanol ratio 4:1), 4.5 % (w/w); in data set [7] (Tween 80/Ethanol ratio 9:1), 1.6 % (w/w).

The values are drawn from US20060088579A1, “Transdermal drug delivery systems” (priority 2002, published 2006).
